Test systems include SK-MEL-5; KM-20L2; NCI-H460; SK-OV-3; HCT-116; A549; OVCAR-8; OVCAR-5; RXF 393; KM12; SNB-19; HL-60; 786-0; SN12C; IGROV-1; CAKI-1; TK-10; CCRF-CEM; MDA-MB-435; BT-549.
What all share (test): growth of human tumour cells (NCI), 48 h

Each structure is given as a SMILES string.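 Interpolation was linear, between the two tested concentrations surrounding the appropriate level; five concentrations were tested over 48 hours in 96-well plates. Here, GI50 denotes the concentration required for 50% inhibition of growth.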 Activity calls are given as the source filed them. No stated cut-off is given here; in the data, active = GI50 up to about 1.1 µM and inactive = higher.

Turning to `c1ccc2c(c1)cc1n2CC2CN=NC12` (configuration not stated), the GI50 in the test with SK-MEL-5, with KM-20L2, in the test on NCI-H460, in the test on SK-OV-3, in the test on HCT-116 and in the test on A549 was > 100 µM (inactive) each time. The GI50 with OVCAR-8, in the test with OVCAR-5, in the test with RXF 393, in the test on KM12, in the test with SNB-19 and in the test with HL-60 was > 100 µM (inactive) each time. In addition, the GI50 in the test on 786-0, in the test with SN12C, with IGROV-1 and in the test with CAKI-1 was > 100 µM (inactive) in each case.

Take `Cc1cccc2c1Sc1ccccc1C2NC(=O)CCN(C)C` (configuration not stated): the GI50 with SK-MEL-5, with KM-20L2, with TK-10, in the test with NCI-H460, with SK-OV-3 and in the test with CCRF-CEM was > 100 µM (inactive) each time. The GI50 with HCT-116, in the test with A549, with OVCAR-8, with OVCAR-5, in the test with RXF 393 and in the test on SNB-19 was > 100 µM (inactive) in each case. Also, the GI50 was > 100 µM (inactive) with HL-60, > 10 µM (inactive) in the test on 786-0, > 100 µM (inactive) with SN12C and > 100 µM (inactive) with IGROV-1.

Take `COc1cccc(C2CC23C(=O)NC(=O)NC3=O)c1` (configuration not stated): the GI50 with SK-MEL-5, with KM-20L2, in the test with TK-10, in the test with NCI-H460, with SK-OV-3 and in the test with CCRF-CEM was > 100 µM (inactive) in each case. The GI50 in the test with HCT-116, with A549, with OVCAR-8, with OVCAR-5, in the test with KM12 and in the test on SNB-19 was > 100 µM (inactive) each time. The GI50 in the test on HL-60, with 786-0, with SN12C, in the test on IGROV-1 and with CAKI-1 was > 100 µM (inactive) throughout.

In the case of `CC1(C)Oc2ccccc2[N+]([O-])=C1c1ccccc1`, the GI50 with SK-MEL-5, with KM-20L2, with NCI-H460, in the test with SK-OV-3, in the test with CCRF-CEM and in the test on HCT-116 was > 100 µM (inactive) in each case. Further, the GI50 with A549, in the test with OVCAR-8, in the test with RXF 393, in the test on SNB-19, in the test with HL-60 and in the test with 786-0 was > 100 µM (inactive) throughout. Further, the GI50 in the test with SN12C, with IGROV-1 and with CAKI-1 was > 100 µM (inactive) throughout.

With `Cc1csc2nc(-c3ccc([N+](=O)[O-])cc3)c(/C=N/N=C(N)N)n12`, the GI50 in the test with SK-MEL-5 was 1.91 µM (inactive); in the test on MDA-MB-435, 1.64 µM (inactive); in the test with TK-10, 1.92 µM (inactive); in the test on NCI-H460, 1.79 µM (inactive); in the test with SK-OV-3, 1.69 µM (inactive); in the test with CCRF-CEM, 1.91 µM (inactive). For the same compound, the GI50 is 1.81 µM (inactive) in the test on HCT-116; 1.84 µM (inactive) with A549; 0.716 µM (active) in the test with OVCAR-8; 1.52 µM (inactive) in the test with OVCAR-5; 0.189 µM (active) with BT-549; 1.79 µM (inactive) in the test with RXF 393. Further, the GI50 is 1.7 µM (inactive) in the test on KM12; 1.92 µM (inactive) in the test with SNB-19; 1.85 µM (inactive) in the test on HL-60; 1.94 µM (inactive) with 786-0; 1.71 µM (inactive) in the test on SN12C; 1.44 µM (inactive) with IGROV-1. For the same compound, the GI50 in the test on CAKI-1 is 4.73 µM (inactive).

As to `C=C1C(=O)OC2CC(C)C(C(O)CC(C)O)=CCC12` (configuration not stated), the GI50 in the test with SK-MEL-5 is 19.4 µM (inactive); in the test on MDA-MB-435, 19.6 µM (inactive); with TK-10 it was 9.14 µM (inactive); in the test with NCI-H460, 18.9 µM (inactive); in the test with SK-OV-3, 36.7 µM (inactive); with CCRF-CEM it was 1.71 µM (inactive). Moreover, the GI50 in the test with HCT-116 was 8.71 µM (inactive); with A549, 25.9 µM (inactive); in the test with OVCAR-8, 17.1 µM (inactive); in the test on OVCAR-5, 15 µM (inactive); in the test with BT-549, 13.4 µM (inactive); in the test on RXF 393 it was 12.5 µM (inactive). In addition, the GI50 in the test with KM12 was 18.6 µM (inactive); in the test with SNB-19, 28.4 µM (inactive); in the test on HL-60, 3.08 µM (inactive); in the test on 786-0 it was 13.7 µM (inactive); in the test on SN12C it was 11.4 µM (inactive); with IGROV-1, 16.8 µM (inactive). Also, in the test on CAKI-1, the GI50 was 4.3 µM (inactive).

Consider `COc1ccc2[nH]c(C(=O)N3CC(CCl)c4ccc(N)cc43)cc2c1` (configuration not stated), for which the GI50 in the test on SK-MEL-5 is 0.0451 µM (active); in the test with MDA-MB-435, 0.264 µM (active); with TK-10 it was 0.37 µM (active); in the test on NCI-H460, 0.0867 µM (active); in the test on SK-OV-3, 0.349 µM (active); with CCRF-CEM, 0.17 µM (active). Besides, the GI50 in the test on HCT-116 was 0.164 µM (active); in the test with A549, 0.0964 µM (active); in the test on OVCAR-8, 0.223 µM (active); in the test with OVCAR-5 it was 0.316 µM (active); in the test on BT-549, 0.412 µM (active); with RXF 393, 0.09 µM (active). Moreover, the GI50 is 0.156 µM (active) in the test on KM12; 0.586 µM (active) in the test on SNB-19; 0.0593 µM (active) in the test with HL-60; 0.233 µM (active) in the test on 786-0; 0.347 µM (active) in the test on SN12C; 0.175 µM (active) with IGROV-1. For the same compound, the GI50 with CAKI-1 is 0.0877 µM (active).

`COc1nc2ncc([C@@H](OC(C)=O)[C@@H](COC(C)=O)OC(C)=O)nc2c(=O)[nH]1`: the GI50 with SK-MEL-5, in the test with MDA-MB-435, with TK-10, in the test on NCI-H460, in the test on SK-OV-3 and in the test with CCRF-CEM was > 100 µM (inactive) each time. Further, the GI50 in the test with HCT-116, in the test on A549, with OVCAR-8, in the test on OVCAR-5, in the test on BT-549 and with RXF 393 was > 100 µM (inactive) each time. In addition, the GI50 in the test with KM12, in the test on SNB-19, in the test on HL-60, in the test with 786-0, in the test with SN12C and with IGROV-1 was > 100 µM (inactive) each time. The GI50 in the test with CAKI-1 was > 100 µM (inactive).

Consider `COc1ccc2c(c1)CCc1cc(OC)ccc1/[N+]([O-])=[N+]\2[O-]`, for which the GI50 was 16.3 µM (inactive) in the test with SK-MEL-5; 16.3 µM (inactive) in the test with MDA-MB-435; 22.4 µM (inactive) in the test on TK-10; 19.1 µM (inactive) in the test on NCI-H460; 18.7 µM (inactive) in the test with SK-OV-3; 1.92 µM (inactive) with CCRF-CEM. Besides, the GI50 was 12.4 µM (inactive) in the test on HCT-116; 26.4 µM (inactive) in the test with A549; 10.4 µM (inactive) in the test with OVCAR-8; 23.2 µM (inactive) in the test on OVCAR-5; 14.8 µM (inactive) with BT-549; 2.86 µM (inactive) in the test with RXF 393. The GI50 in the test on KM12 is 20.2 µM (inactive); in the test with SNB-19, 21.6 µM (inactive); in the test on HL-60, 6.11 µM (inactive); in the test on 786-0, 6.27 µM (inactive); in the test with SN12C, 16.2 µM (inactive); in the test on IGROV-1, 12.1 µM (inactive). Further, the GI50 with CAKI-1 was 17.6 µM (inactive).

Consider `C=C1C(=O)C23CC1C[C@H](OC(C)=O)[C@H]2C1(C)C(OC(C)=O)C[C@H](O)C(C)(C)[C@H]1C(=O)[C@@H]3OC(C)=O` (some centres not stated), for which the GI50 in the test with SK-MEL-5 is 13.9 µM (inactive); in the test with MDA-MB-435 it was 3.09 µM (inactive); in the test with TK-10, 2.28 µM (inactive); in the test on NCI-H460 it was 17.5 µM (inactive); in the test on SK-OV-3, 18.1 µM (inactive); with CCRF-CEM it was 1.41 µM (inactive). The GI50 in the test on HCT-116 was 2.22 µM (inactive); with A549, 17.9 µM (inactive); with OVCAR-8, 2.95 µM (inactive); in the test with OVCAR-5, 9.51 µM (inactive); in the test on BT-549, 2.84 µM (inactive); in the test with RXF 393, 3.09 µM (inactive). In addition, the GI50 is 10.9 µM (inactive) in the test on KM12; 18.5 µM (inactive) with SNB-19; 2.18 µM (inactive) with HL-60; 3.28 µM (inactive) in the test on 786-0; 4.76 µM (inactive) in the test with SN12C; 12.4 µM (inactive) in the test on IGROV-1. For the same compound, the GI50 in the test with CAKI-1 is 2.86 µM (inactive).

As to `O=C(CCc1ccc(O)c(O)c1)NCCc1ccccc1`, the GI50 with SK-MEL-5 is 22.4 µM (inactive); with MDA-MB-435, 15.2 µM (inactive); with TK-10 it was > 79.8 µM (inactive); with NCI-H460 it was > 91.2 µM (inactive); in the test with SK-OV-3, 65.8 µM (inactive); in the test on CCRF-CEM, 3.17 µM (inactive). The GI50 in the test with HCT-116 was 26.4 µM (inactive); in the test with A549 it was 76.9 µM (inactive); with OVCAR-8 it was > 47.5 µM (inactive); with OVCAR-5, > 100 µM (inactive); in the test on BT-549, 31.8 µM (inactive); with RXF 393, > 100 µM (inactive). Moreover, the GI50 in the test with KM12 was 49.9 µM (inactive); in the test on SNB-19, > 74.5 µM (inactive); in the test on HL-60, 6.58 µM (inactive); in the test on 786-0, 31.6 µM (inactive); with SN12C, > 31.6 µM (inactive); in the test with IGROV-1, 50.9 µM (inactive). The GI50 with CAKI-1 was 6.49 µM (inactive).

For the origin of these results see ChEMBL document CHEMBL1201862, “PubChem BioAssay data set” (2004).
